Patent US10207993B2 (priority 2014, dated 2019)

Experiments:
H37Rv = assay: microbe, parasite or virus in culture; assay type: cell-based, M. tuberculosis; conditions: for inhibition at 0.5 µM: Mycobacterium tuberculosis, H37RV, THP-1, 90 h, read-out: H37Rv % Inhibition at 500 nM; for H37Rv % Inhibition at 500 nM: 0.5 µM
GPR109A = GPR109A (Homo sapiens, UniProt Q8TDS4); assay type: cell-based
Chain of GPR109A (Q8TDS4 whole entry): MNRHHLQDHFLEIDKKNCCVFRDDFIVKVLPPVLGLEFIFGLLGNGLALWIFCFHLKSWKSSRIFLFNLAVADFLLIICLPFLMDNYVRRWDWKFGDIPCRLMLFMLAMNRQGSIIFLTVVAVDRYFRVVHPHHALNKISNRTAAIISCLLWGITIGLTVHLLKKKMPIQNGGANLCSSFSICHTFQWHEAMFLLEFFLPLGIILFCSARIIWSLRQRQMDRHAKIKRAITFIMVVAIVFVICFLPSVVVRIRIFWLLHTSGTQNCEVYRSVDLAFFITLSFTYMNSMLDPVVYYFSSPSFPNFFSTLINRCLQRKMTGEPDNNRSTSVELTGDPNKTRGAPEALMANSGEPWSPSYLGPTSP

SMILES | inhibition at 0.5 µM (H37Rv) | further results
CN1CCC[C@H](OC(=O)[C@@H](O)c2ccccc2)C1 [Compound 1040, (S)-(S)-1-Methylpiperidin-3-yl 2-hydroxy-2-phenylacetate] | 79% | 
O=C(NC1CCN(Cc2ccccc2)CC1)C(O)(c1ccccc1)c1ccccc1 [Compound 1017, N-(1-Benzylpiperidin-4-yl)-2-hydroxy-2,2-diphenylacetamide] | 75% | 
CO[C@@H](C(=O)N1CCO[C@H](C)[C@@H]1C)c1ccccc1 [Compound 1076, (R)-1-((2R,3S)-2,3-Dimethylmorpholino)-2-methoxy-2-phenylethanone] | 50% | 
C[N+]1(C)CCC[C@H](OC(=O)[C@H](O)c2ccccc2)C1 [Compound 1054, (S)-3-((R)-2-Hydroxy-2-phenylacetoxy)-1,1-dimethylpiperidin-1-ium] | 74% | 
CO[C@@H](C(=O)N1CCOC[C@@H]1C)c1ccccc1 [Compound 1074, (R)-2-Methoxy-1-((S)-3-methylmorpholino)-2-phenylethanone] | 24% | 
CN1CCCC(NC(=O)C(O)(c2ccccc2)c2ccccc2)C1 (centres unmarked) [Compound 1020, 2-Hydroxy-N-(1-methylpiperidin-3-yl)-2,2-diphenylacetamide] | 64% | 
O=C(NC1CCN(Cc2ccccc2)CC1)[C@H](O)c1ccccc1 [Compound 1051, (R)-N-(1-Benzylpiperidin-4-yl)-2-hydroxy-2-phenylacetamide] | 59% | 
CN1CCC[C@@H](OC(=O)[C@@H](O)c2ccccc2)C1 [Compound 1039] | 61% | 
CN1CCC[C@@H](OC(=O)[C@H](O)c2ccccc2)C1 [Compound 1037, (R)-(R)-1-Methylpiperidin-3-yl 2-hydroxy-2-phenylacetate] | 40% | 
O=C(NC1CCCN(Cc2ccccc2)C1)C(O)(c1ccccc1)c1ccccc1 (stereo in doubt) [Compound 1029, (R)-N-(1-Benzylpiperidin-3-yl)-2-hydroxy-2,2-diphenylacetamide] | 61% | 
O=C(Nc1cccnc1)[C@H](O)c1ccccc1 [Compound 1055, (R)-2-Hydroxy-2-phenyl-N-(pyridin-3-yl)acetamide] |  | H37Rv % Inhibition at 500 nM (H37Rv): 52%
O=C(Nc1cccnc1)C(O)c1ccccc1 (stereo in doubt) [Compound 1046, (S)-2-Hydroxy-2-phenyl-N-(pyridin-3-yl)acetamide] | 56% | 
CN1CCCC(NC(=O)[C@H](O)c2ccccc2)C1 (stereo in doubt) [Compound 1045, (R)-2-Hydroxy-N-((S)-1-methylpiperidin-3-yl)-2-phenylacetamide] |  | H37Rv % Inhibition at 500 nM (H37Rv): 66%
O=C(N[C@@H]1CCCN(Cc2ccccc2)C1)C(O)(c1ccccc1)c1ccccc1 [Compound 1028, (R)-N-(1-Benzylpiperidin-3-yl)-2-hydroxy-2,2-diphenylacetamide] | 77% | 
CN1CC[C@H](OC(=O)[C@H](O)c2ccccc2)C1 [Compound 1058] | 55% | 
O=C(NC1CN(Cc2ccccc2)C1)C(O)(c1ccccc1)c1ccccc1 [Compound 1022, N-(1-Benzylazetidin-3-yl)-2-hydroxy-2,2-diphenylacetamide] | 75% | 
CN1CCC[C@@H](NC(=O)[C@H](O)c2ccccc2)C1 [Compound 1044, (R)-2-Hydroxy-N-((R)-1-methylpiperidin-3-yl)-2-phenylacetamide] | 65% | 
COC(C(=O)O)c1ccccc1 (centres unmarked) [Compound 1060, 2-Methoxy-2-phenylacetic acid] | 78% | 
O=C(NC1CCN(Cc2ccccc2)CC1)C(O)(c1ccccc1)c1ccccc1 [Compound 1021, N-(1-Benzylpiperidin-4-yl)-2-hydroxy-2,2-diphenylacetamide] |  | H37Rv % Inhibition at 500 nM (H37Rv): 74%
COC(C(=O)OC1CCCN(C)C1)c1ccccc1 (stereo in doubt) [Compound 1059, (S)-(R)-1-Methylpiperidin-3-yl 2-methoxy-2-phenylacetate] | 74% | 
CN1CCC(NC(=O)[C@H](O)c2ccccc2)CC1 [Compound 1043, (R)-2-Hydroxy-N-(1-methylpiperidin-4-yl)-2-phenylacetamide] | 72% | 

SMILES | inhibition at 0.5 µM (H37Rv) | further results
CC(=O)O[C@@H](C(=O)O[C@H]1CCCN(C)C1)c1ccccc1 [Compound 1056] | 78% | 
O=C(NC1CCCNC1)C(O)(c1ccccc1)c1ccccc1 (centres unmarked) [Compound 1016, 2-Hydroxy-2,2-diphenyl-N-(piperidin-3-yl)acetamide] | 65% | 
O=C(OC1CN(Cc2ccccc2)C1)[C@@H](O)c1ccccc1 [Compound 1048, (S)-1-Benzylazetidin-3-yl 2-hydroxy-2-phenylacetate] | 79% | 
CN1CCCC(NC(=O)C(O)(c2ccccc2)c2ccccc2)C1 (stereo in doubt) [Compound 1032, (R)-2-Hydroxy-N-(1-methylpiperidin-3-yl)-2,2-diphenylacetamide] |  | H37Rv % Inhibition at 500 nM (H37Rv): 72%
CN1CC[C@@H](OC(=O)[C@H](O)c2ccccc2)C1 [Compound 1057, (R)-(R)-1-Methylpyrrolidin-3-yl 2-hydroxy-2-phenylacetate] | 76% | 
O=C(N[C@@H]1CCCN(Cc2ccccc2)C1)C(c1ccccc1)c1ccccc1 [Compound 1034, (R)-N-(1-Benzylpiperidin-3-yl)-2,2-diphenylacetamide] | 64% | 
CN1CCC[C@H](NC(=O)C(O)(c2ccccc2)c2ccccc2)C1 [Compound 1031, (S)-2-Hydroxy-N-(1-methylpiperidin-3-yl)-2,2-diphenylacetamide] | 74% | 
C[N+]1(C)CCC[C@@H](OC(=O)[C@H](O)c2ccccc2)C1 [Compound 1053, (R)-3-((R)-2-Hydroxy-2-phenylacetoxy)-1,1-dimethylpiperidin-1-ium] | 78% | 
CO[C@@H](C(=O)N1CCOC[C@H]1C)c1ccccc1 [Compound 1075, (R)-2-Methoxy-1-((R)-3-methylmorpholino)-2-phenylethanone] | 46% | 
CC(O)CC(=O)O (centres unmarked) [Compound 3HBA, 3-hydroxybutyric acid] |  | effect on intracellular cAMP levels (GPR109A): reduces intracellular cAMP levels
O=C(N[C@H]1CCCN(Cc2ccccc2)C1)C(O)c1ccccc1 (stereo partly drawn) [Compound 1035, N-((S)-1-Benzylpiperidin-3-yl)-2-hydroxy-2-phenylacetamide] | 62% | 
O=C(NC1CCNCC1)C(O)(c1ccccc1)c1ccccc1 [Compound 1030, 2-Hydroxy-2,2-diphenyl-N-(piperidin-4-yl)acetamide] | 52% | 
CC(O)(C(=O)N[C@@H]1CCCN(Cc2ccccc2)C1)c1ccccc1 (stereo partly drawn) [Compound 1036, N-((R)-1-Benzylpiperidin-3-yl)-2 hydroxy-2-phenylpropanamide] | 58% | 
CO[C@H](C(=O)N1CCOC[C@@H]1C)c1ccccc1 [Compound 1077, (S)-2-Methoxy-1-((S)-3-methylmorpholino)-2-phenylethanone] | 52% | 
O=C(NC1CCN(Cc2ccccc2)CC1)[C@@H](O)c1ccccc1 [Compound 1052, (S)-N-(1-Benzylpiperidin-4-yl)-2-hydroxy-2-phenylacetamide] | 73% | 
CN1CCC(NC(=O)[C@@H](O)c2ccccc2)CC1 [Compound 1042, (S)-2-Hydroxy-N-(1-methylpiperidin-4-yl)-2-phenylacetamide] | 73% | 
C[N+]12CCC(CC1)C(OC(=O)C(O)(c1ccccc1)c1ccccc1)C2 (centres unmarked) [Compound 1008, 3-(2-Hydroxy-2,2-diphenylacetoxy)-1-methylquinuclidin-1-ium] | 42% | 
CN1CCC(OC(=O)[C@H](O)c2ccccc2)CC1 [Compound 1041, (R)-1-Methylpiperidin-4-yl 2-hydroxy-2-phenylacetate] | 71% | 
CN1CCC(OC(=O)C(O)c2ccccc2)CC1 (stereo in doubt) [Compound 1047, (S)-1-Methylpiperidin-4-yl 2-hydroxy-2-phenylacetate] |  | H37Rv % Inhibition at 500 nM (H37Rv): 68%
CN1CCC[C@H](OC(=O)[C@H](O)c2ccccc2)C1 [Compound 1038] | 56% | 
